The values that follow come from publication PMC5065625, “Structure-mechanism-based engineering of chemical regulators targeting distinct pathological factors in Alzheimer's disease” (Nature Communications, 2016).

The target in one series is metal-free Aβ40/Aβ42 (Homo sapiens, UniProt P05067). Also on record: method as in PMID 26575890. The settings on record: cited from earlier work.
A further series is described as follows: Solubility. It counts as physicochemical. The following applies: water; HCl salt.

Structures are written as SMILES. Where a name gives a salt, the structure may show the parent alone.

Sequence of metal-free Aβ40/Aβ42 (P05067 672-711 limits assumed): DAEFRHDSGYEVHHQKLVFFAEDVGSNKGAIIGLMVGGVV

As for `CN(C)c1ccc(N)cc1` [DMPD, N,N-dimethyl-p-phenylenediamine], the “Interaction with Aβ and redirection of self-assembly” value at metal-free Aβ40/Aβ42 is “interact with both metal-free Aβ and metal–Aβ and redirect their self-assembly routes to form off-pathway aggregates”.
Usually solubility stands for the concentration that dissolves in the medium under given conditions. Consider `Nc1ccc(NCc2ccccn2)cc1` [HCl salt of 1, N^1-(pyridin-2-ylmethyl)benzene-1,4-diamine], for which, in the series “Solubility”, the solubility is around 800 mg/mL.
